From patent US20080170998A1 (priority 2005, published 2008)

Assays:
[1] = system: Porphyromonas gingivalis ATCC 33277 strain; format: cell-based; details: 0.1 mg/mL, 1 mg/mL, 10 mg/mL
[2] = system: Porphyromonas gingivalis ATCC 33277 strain, W50 strain; test: Growth of periodontopathic bacteria in pRH-containing medium (turbidity O.D.660 nm); format: cell-based; details: 500 μg/mL; ATCC 33277 and W50 strains; FIGS. 1, 2
Method: (§1) Each of the above cryopreserved strains was anaerobically cultivated at 35° C. for 48 hours by using TSB medium to which yeast extract (1 g/L), hemin ([…]), and menadione (1 mg/L) were added to provide a precultured bacterial culture.

[3] = system: Treponema denticola ATCC 33520 strain; test: as above; format: cell-based; details: 500 μg/mL, FIG. 9
Method: as §1

[4] = system: Actinobacillus actinomycetemcomitans ATCC 29523 stain, Y4 strain; test: as above; format: cell-based; details: 500 μg/mL; ATCC 29523 and Y4 strains; FIGS. 5, 6
Method: as §1

[5] = system: Prevotella intermedia ATCC 49046 strain; test: as above; format: cell-based; details: 500 μg/mL, FIG. 3
Method: as §1

[6] = system: Fusobacterium nucleatum ATCC 23726 strain, ATCC 25586 strain; test: as above; format: cell-based; details: 500 μg/mL; ATCC 23726 and ATCC 25586 strains; FIGS. 7, 8
Method: as §1

[7] = system: Prevotella nigrescens ATCC 25261 strain; details: O.D.660 nm after 24 hours and 48 hours, FIG. 4
[8] = system: Porphyromonas gingivalis ATCC 33277 strain and Streptococcus oralis ATCC 9811 strain; details: pRH solution 2.5 mg/mL; PBS pH 6.0, 37° C.; FIG. 13
[9] = system: arginine-specific protease (Arg-gingipain; RGP); test: Protease inhibition, fluorogenic substrate Bz-Arg-methylcoumarinamide, culture supernatant; format: biochemical, Porphyromonas gingivalis; details: substrate 100 μM, 15 minutes room temperature
Method: Enzyme activity inhibitions of an arginine-specific protease (Arg-gingipain; hereinafter, referred to as “RGP”) and lysin-specific protease (Lys-gingipain; hereinafter, referred to as “KGP”) as dominant virulence factor for Porphyromonas gingivalis were examined.
The reaction was stopped by adding 2 mM TLCK, and released methyl-coumarin-amide was measured by means of spectrophotofluorometer (excitation wavelength: 380 nm, fluorescence wavelength: 460 nm).
Furthermore, an inhibition rate was defined according to the Equation (1):
Inhibition rate(%)=(Blank fluorescence intensity−Sample fluorescence intensity)÷Blank fluorescence intensity×100 (1)
Blank fluorescence intensity indicates fluorescence intensity upon reaction without adding pRH. Sample fluorescence intensity indicates fluorescence intensity upon reaction with adding pRH.

Row | Substance | inhibition of the absorption (adhesion) of Porphyromonas gingivalis for sHA [1] | growth inhibitory effect [2] | growth inhibitory effect [3] | growth inhibitory effect [4] | growth inhibitory effect [5] | growth inhibitory effect [6] | concentration at which a growth inhibitory effect was observed [7] | aggregation inhibitory activity (inhibition rate of coaggregation) [8] | inhibition rate for RGP ([9]; pRH at 100 μg/mL) | inhibition rate for RGP ([9]; pRH at 1000 μg/mL)
1 | polylysine [reference compound] | did not inhibit | – | – | – | – | – | – | – | – | –
2 | polyarginyl histidine [pRH] | obviously inhibited | not observed | not observed | not observed | not observed | not observed | ≥ 100 µg/mL | 33% | 0.2% | 7.7%
